Results: patent publication US20220184084A1, “COMPOSITIONS AND METHODS FOR TREATING CUSHING'S DISEASE” (The Regents of the University of California, priority 2019, published 2022)
Like-named read-outs stand apart in the source and are kept apart here. Starred links: 1 amine or outer side, 2 acyl side, 3 side chain; linkers in the order of their positions; H or OH if unused. Non-standard residues stand in square brackets, D forms with d. Residues, ends and D or L forms follow the SMILES beside them. Groups on a side chain read outwards from the residue. *: point of attachment. Ethylenediamine = C(CN[*:2])N[*:1]; Hyp = O=C(O)[C@@H]1C[C@@H](O)CN1; Phg = N[C@H](C(=O)O)c1ccccc1; CO = O=C([*:1])[*:2]; Bn = c1ccc(C*)cc1

Key:
[1] = system: AtT20 cells; assay: ACTH AlphaLISA assay, screen of kinase inhibitor library; assay type: cell-based, murine; conditions: Mus musculus, read-out: ACTH Inhibition (%)
Procedure: The latter mouse antibody is then trapped by an anti-mouse IgG (Fc specific) conjugated to acceptor beads, bringing the donor and acceptor beads into close proximity. […] Conversely if the cell SN ACTH is reduced following treatment with an ACTH inhibitor, the Alpha signal is restored.
One column (#1) with vehicle treatment only, and two cell-free columns (#23 & 24) were included as AlphaLISA signal negative and positive controls respectively to monitor assay performance.
Thereafter, 2 μL of cell culture supernatant was transferred from the black culture plate into a white low volume assay plate (Corning) using Vprep (Agilent) equipped with Velocity 11 Biocel 1800 (Agilent). 1 μL of biotinylated ACTH peptide solution (AnaSpec) and 1 μL of anti-ACTH antibody solution (EMD) is added sequentially into the low volume assay plate using AquaMax DW4 (Molecular Devices) Following a 1 h incubation, 1 μL donor and acceptor beads (PerkinElmer) were added to the assay plate using ELx405 (BioTek). Optical seals (Sigma) are used to minimize assay evaporation during the subsequent 2 h incubation. The assay plate is then transferred by a Thermo Spinnaker robotic arm to Envision (PerkinElmer) for AlphaLISA signal detection.

[2] = system: AtT20 cells; assay: Nuclei staining (Hoechst 33342 dye), screen of kinase inhibitor library; assay type: cell-based, murine; conditions: Mus musculus; for inhibition at 1 µM / inhibition at 10 µM: read-out: Nuclei Inhibition (%)
Procedure: This plate was incubated in a Cytomat 6000 sealed with gas permeable polyurethane film (USA Scientific) and imaged on ImageXpress^XL (Molecular Devices). All these instruments are integrated on a Beckman Coulter SAMI automation platform which tracks timing to ensure accuracy and consistency of all steps.

[3] = system: AtT20 cells; assay: AtT20 cell proliferation IC50 (CellTiter-Glo); assay type: cell-based, murine; conditions: read-out: IC50 for proliferation inhibition
Procedure: The IC50 values were calculated using sigmoidal dose-response curve (GraphPad Prism).

[4] = system: AtT20 cells; assay: POMC mRNA expression in AtT20 cells by real time PCR; assay type: cell-based, murine; conditions: 20 nM to 1.25 nM, 24 h, RT-PCR
Procedure: The POMC mRNA expression […] values were determined by real time PCR.
FIG. 6I depicts the results of a study wherein AtT20 cells were treated with panobinostat and burparlisib simultaneously to detect the effects on POMC mRNA expression.

[5] = system: AtT20 cells; assay: ACTH secretion in AtT20 cells (ELISA); assay type: cell-based, murine; conditions: for EC50: Mus musculus, read-out: EC50 for ACTH secretion inhibition
Procedure: The EC50 for ACTH secretion inhibition were calculated using a sigmoidal dose-response curve (GraphPad Prism).
FIG. 6F depicts the results of a study wherein AtT20 cells were treated with panobinostat and burparlisib simultaneously to detect the effects on ACTH secretion.

[6] = system: human corticotroph tumor primary cultures; assay: Proliferation of human corticotroph tumor primary cultures (CellTiter-Glo); assay type: cell-based; conditions: two human primary corticotroph tumor cultures, 3 days, read-out: IC50 anti-proliferative effect
[7] = system: human corticotroph tumor primary cultures; assay: ACTH secretion in human corticotroph tumor primary culture (ELISA); assay type: cell-based; conditions: Vehicle 3.7±0.2
[8] = system: AtT20 cells inoculated into athymic nude mice; assay: Xenograft model of Cushing disease; assay type: in vivo, athymic nude mice (Nu/J strain); conditions: 300 mg/kg oral gavage daily, 18 days
Procedure: Animal bodyweight was recorded daily. […] Tumor size was recorded daily. […] Tumor size was measured post euthanizer. […] Tumor weight was measured post euthanizer. […] Blood samples were collected by cardiac puncture and plasma ACTH levels were measured by ELISA. […] Blood samples were collected by cardiac puncture and plasma corticosterone levels were measured by ELISA. […] AtT20 cells (2×10^5/animal) were injected into the hind flank region of athymic nude mice (Nu/J strain from Jackson lab). […] During 18-days of CUDC-907-treatment, animal bodyweight (FIG. 4A) and tumor sizes (FIG. 4B) were measured daily. Upon experiment completion, the animals were euthanized and tumors were harvested, and weighed. Blood samples were collected by cardiac puncture.

[9] = system: AtT20 cells stably transfected with POMC promoter driven luciferase; assay: POMC promoter-driven luciferase assay (POMC-Luc); assay type: cell-based, murine; conditions: 1 day
Excerpt: Using a POMC promoter-driven luciferase assay, the direct actions of the aforementioned compounds on POMC transcription was examined.

[10] = system: AtT20 cells; assay: Expression of POMC regulators (Nurr1, Nur77, LXRα, GR) after treatment; assay type: cell-based, murine
Excerpt: Accordingly, the expressions of several nuclear receptors, known as POMC positive and negative regulators, including Nurr1 (NR4A2), Nur77 (NR4A1), LXRα (NR1H3), and GR (NR3C1), were examined.

[11] = system: Nurr1; assay: Nurr1 interaction with HDACs and Nurr1 phosphorylation by immunoprecipitation; assay type: cell-based
Excerpt: FIG. 7F depicts the interactions between Nurr1, HDACs, and Nurr1 phosphorylation, as detected by immunoprecipitation.

[12] = system: AtT20 cells; assay: c-Myc and cell cycle inhibitor mRNA by real time PCR; assay type: cell-based; conditions: murine corticotroph tumor cells, 5 nM, 24 h
[13] = system: AtT20 cells; assay: Histone acetylation (H3K9) and AKT pathway activation in AtT20 cells; assay type: cell-based, murine; conditions: 3 days
[14] = system: murine corticotroph tumor Caspase-3/7; assay: Caspase-Glo3/7 assay; assay type: cell-based; conditions: 24 hours
[15] = system: AtT20 cells; assay: Relative proliferation rate, panobinostat and buparlisib alone and combined; assay type: cell-based, murine; conditions: Veh 1.0±0.06
Procedure: FIG. 6G depicts the results of a study wherein AtT20 cells were treated with panobinostat and burparlisib simultaneously to detect the effects on cell proliferation.

[16] = background statement; cited from earlier work
[17] = 72 h, 100 nM, AtT20 cells, 3 days
[18] = 72 h, 1 μM, AtT20 cells, 3 days
[19] = 72 h, 10 μM, AtT20 cells, 3 days
[20] = Mus musculus, AtT20, 72 h, 3 day-treatment
[21] = Mus musculus, AtT20, 72 h, 3 days

Q: What does the source list for `COc1ccc(-c2nc(N3CCOCC3)c3sc(CN(C)c4ncc(C(=O)NO)cn4)cc3n2)cn1` [CUDC-907]?
A: inhibition at 0.1 µM [1, 17]: 84.7%; inhibition at 1 µM [1, 18]: 80.1%; inhibition at 10 µM [1, 19]: 80%; inhibition at 0.1 µM ([2]; 72 h, AtT20 cells, 3 days): 90.1%; inhibition at 1 µM [2, 18]: 99.2%; inhibition at 10 µM [2, 19]: 99.3%; IC50 ([3]; 3 day-treatment): 5.1 nM; IC50 [3, 20]: 5 nM; effect on POMC mRNA expression [4]: potent reduction in POMC mRNA expression; reduction of ACTH secretion ([5]; 1.25 nM): 59%; ACTH secretion ([5]; 1.25 nM, 24 h, Vehicle 30±19): 12 ± 2.4 ng/mL; ACTH secretion ([5]; 2.5 nM, 24 h, Vehicle 30±19): 12 ± 5.7 ng/mL; EC50 [5]: 1 nM; ACTH secretion ([5]; concentration not given, 24 h, Vehicle 30±19): 15 ± 2.2 ng/mL; IC50 ([6]; Homo sapiens, 72 h): 3 nM; IC50 [6]: 5 nM; ACTH secretion [7]: 1.9 ± 0.001 ng/mL; reduction of plasma ACTH level ([8]; vs controls): 77%; reduction of plasma corticosterone level ([8]; vs controls): 85%; reduction in tumor size ([8]; vs vehicle): ~35%; reduction in tumor weight ([8]; vs vehicle): 44%; tumor weight ([8]; Control 0.098±0.02): 0.04±0.006 gram; tumor volume ([8]; Control 0.17±0.05): 0.065±0.02 cm^3; Plasma corticosterone ([8]; Control 180±87): 27 ± 4.66 ng/mL; Plasma ACTH ([8]; Control 206.1±27.2): 47.4 ± 7.3 pg/mL; EC50 ([9]; Mus musculus, 24 h, read-out: EC50 for POMC transcription inhibition): 0.5 nM; Nurr1 expression ([10]; 1.25 nM, 24 h): reduction in Nurr1 expression; LXRα expression ([10]; 5 and 10 nM, 24 h): reductions; Nur77 expression ([10]; 5 and 10 nM, 24 h): reductions; Nurr1 protein expression ([10]; 6 h-treatment): dramatic inhibition; GR expression ([10]; 24 h): minor effects; Nurr1 mRNA expression ([10]; real time PCR): inhibition of Nurr1 mRNA expression; Nurr1 interaction with HDAC-1, 2, 3, but not HDAC10 [11]: unaffected; Nurr1 serine/threonine phosphorylation levels [11]: dramatically inhibited; c-Myc mRNA expression [12]: increased; AKT activation and downstream target 4E-BPI [13]: blocked; histone acetylation Ac-H3-K9 [13]: elevated histone acetylation; activity of caspase-3 and -7 [14]: increasing the activity

Q: What does the source list for `Nc1cc(C(F)(F)F)c(-c2cc(N3CCOCC3)nc(N3CCOCC3)n2)cn1` [buparlisib]?
A: IC50 [3, 21]: 500 nM; effect on ACTH secretion ([5]; buparlisib alone): did not inhibit ACTH secretion; effect on POMC transcription [9]: increased POMC transcription at higher doses; Relative Proliferation Rate ([15]; buparlisib 62.5 nM alone): 1.0±0.06

Q: Which results are given for `Cc1nc(Nc2n[nH]c3c2CN(C(=O)N[C@H](CN(C)C)c2ccccc2)C3(C)C)c2sccc2n1` [PF-3758309]?
A: inhibition at 0.1 µM [1, 17]: 70.4%; inhibition at 1 µM [1, 18]: 70.2%; inhibition at 10 µM [1, 19]: 77.5%; inhibition at 0.1 µM ([2]; 72 h, AtT20 cells, 3 days): 91.5%; inhibition at 1 µM [2, 18]: 95.6%; inhibition at 10 µM [2, 19]: 95.2%

Q: What does the source list for `COc1ccc(-c2ccc3ncc4c(c3c2)n(-c2ccc(N3CCNCC3)c(C(F)(F)F)c2)c(=O)n4C)cn1` [BGT226 (NVP-BGT226)]?
A: inhibition at 0.1 µM [1, 17]: 57.5%; inhibition at 1 µM [1, 18]: 86.3%; inhibition at 10 µM [1, 19]: 88.2%; inhibition at 0.1 µM ([2]; 72 h, AtT20 cells, 3 days): 94.3%; inhibition at 1 µM [2, 18]: 99%; inhibition at 10 µM [2, 19]: 95.4%

Q: Which inhibition at 0.1 µM [1, 17] does the source give for `CCc1cnn2c(NCc3ccc[n+]([O-])c3)cc(N3CCCC[C@H]3CCO)nc12` [Dinaciclib (SCH727965)] here?
A: The inhibition at 0.1 µM was 58.1%.

Q: What about the inhibition at 1 µM [1, 18] of the same compound?
A: The inhibition at 1 µM was 77.3%.

Q: And the inhibition at 10 µM [1, 19]?
A: The inhibition at 10 µM was 69.2%.

Q: What about the inhibition at 0.1 µM ([2]; 72 h, AtT20 cells, 3 days) of the same compound?
A: Its inhibition at 0.1 µM is 92%.

Q: What about the inhibition at 1 µM [2, 18] of the same compound?
A: The inhibition at 1 µM was 98.3%.

Q: What about the inhibition at 10 µM [2, 19] of the same compound?
A: The inhibition at 10 µM was 98%.

Q: Which IC50 [3, 21] does the source give for `CS(=O)(=O)N1CCN(Cc2cc3nc(-c4cccc5[nH]ncc45)nc(N4CCOCC4)c3s2)CC1` [pictilisib] here?
A: The IC50 was 800 nM.

Q: And the “effect on POMC transcription” value [9]?
A: The value was “increased POMC transcription at higher doses”.

Q: Which inhibition at 0.1 µM ([1]; AtT20, 72 h) does the source give for `CC[C@@H]1C(=O)N(C)c2cnc(Nc3ccc(C(=O)NC4CCN(C)CC4)cc3OC)nc2N1C1CCCC1` [BI 2536] here?
A: The inhibition at 0.1 µM was 54.9%.

Q: And the inhibition at 1 µM ([1]; AtT20, 72 h)?
A: The inhibition at 1 µM was 82%.

Q: And the inhibition at 10 µM ([1]; AtT20, 72 h)?
A: The inhibition at 10 µM was 77.7%.

Q: What about the inhibition at 1 µM ([2]; AtT20, 72 h) of the same compound?
A: Its inhibition at 1 µM is 92.3%.

Q: What about the inhibition at 10 µM ([2]; AtT20, 72 h) of the same compound?
A: The inhibition at 10 µM was 94%.

Q: With `NCCCC[C@@H]1NC(=O)[C@@H](Cc2c[nH]c3ccccc23)NC(=O)[C@H](c2ccccc2)NC(=O)[C@@H]2C[C@@H](OC(=O)NCCN)CN2C(=O)[C@H](Cc2ccccc2)NC(=O)[C@H](Cc2ccc(OCc3ccccc3)cc2)NC1=O` [pasireotide] (cyclo([Hyp]([CO-Ethylenediamine])[Phg][dW]KY(Bn)F)) as the compound, how does the “patients in whom the drug causes diabetes” value [16] read?
A: Its value is “approximately 50%”.

Q: With `Cc1[nH]c2ccccc2c1CCNCc1ccc(/C=C/C(=O)NO)cc1` [panobinostat] as the compound, how does the IC50 [3, 20] read?
A: Its IC50 is 20 nM.

Q: What about the EC50 [5] of the same compound?
A: The EC50 was 4 nM.

Q: And the ACTH secretion ([5]; panobinostat 5 nM alone, Veh 39.6±2)?
A: Its ACTH secretion is 28.7 ± 0.1 ng/mL.

Q: What about the ACTH secretion ([5]; panobinostat 10 nM alone, Veh 39.6±2) of the same compound?
A: The ACTH secretion was 13.6 ± 1 ng/mL.

Q: And the “inhibition of ACTH secretion” value ([5]; panobinostat 5 and 10 nM alone)?
A: Its value is “up to 66%”.

Q: What about the “Relative Proliferation Rate” value ([15]; panobinostat 5 nM alone) of the same compound?
A: Its value is 1.0±0.01.

Q: And the “Relative Proliferation Rate” value ([15]; panobinostat 10 nM alone)?
A: The value was 0.8±0.005.
